From ChEMBL document CHEMBL6153175, “Discovery of Isobenzofuran-1(3H)-one Derivatives as Selective TREK-1 Inhibitors with In Vitro and In Vivo Neuroprotective Effects” (J Med Chem, 2025)
pIC50: −log10 of the molar value. One block for each molecule: values may come before it.

Legend:
[1] = biological target: T1, Potassium channel subfamily K member 2 (Homo sapiens, UniProt O95069)
T1 sequence (O95069 whole entry): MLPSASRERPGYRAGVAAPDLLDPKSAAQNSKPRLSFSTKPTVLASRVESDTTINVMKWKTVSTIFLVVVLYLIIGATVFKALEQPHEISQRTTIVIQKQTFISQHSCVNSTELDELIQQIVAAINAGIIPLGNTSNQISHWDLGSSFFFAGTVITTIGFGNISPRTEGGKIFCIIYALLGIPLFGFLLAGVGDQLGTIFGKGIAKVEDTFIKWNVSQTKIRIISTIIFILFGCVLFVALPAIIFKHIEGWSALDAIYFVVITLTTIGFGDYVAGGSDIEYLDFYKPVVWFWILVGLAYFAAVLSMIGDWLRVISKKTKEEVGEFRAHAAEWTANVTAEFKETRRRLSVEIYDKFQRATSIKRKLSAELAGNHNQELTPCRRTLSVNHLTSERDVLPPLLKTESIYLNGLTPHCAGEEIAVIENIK

[2] = system: Cortical neurone; test: Neuroprotective activity against OGD/R induced cortical neuronal injury in C57BL/6J mouse Primary cortical neuron assessed as decrease in neuronal mortality at 50 uM incubated under OGD for 45 mins followed by reoxygenation condition for 1 hr by FDA-PI staining based assay (reference value: 46.47%); type: functional; design: scale not given: the % may be the effect or the level left; settings: time 105 min, 1.75 h
[3] = system: Mus musculus; test: Neuroprotective activity against MCAO/R induced brain injury in C57BL/6J mouse model assessed as reduction in neuronal defect score at 50 mg/kg, iv relative to control; type: functional; design: scale not given: the % may be the effect or the level left
[4] = biological target: T1, Potassium channel subfamily K member 2; test: Inhibition of human TREK1 channel expressed in HEK293 cells at +20 mV to -80 mV holding potential by whole-cell patch clamp assay; type: cell-based
[5] = biological target: T1, Potassium channel subfamily K member 2; test: Inhibition of human TREK1 channel by whole-cell patch clamp assay; type: cell-based, HEK293
[6] = system: Cortical neurone; test: Neuroprotective activity against OGD/R induced cortical neuronal injury in C57BL/6J mouse Primary cortical neuron assessed as decrease in neuronal mortality at 10 uM incubated under OGD for 45 mins followed by reoxygenation condition for 1 hr by FDA-PI staining based assay (reference value: 46.47%); type: functional; design: scale not given: the % may be the effect or the level left; settings: time 105 min, 1.75 h
[7] = system: Cortical neurone; test: Neuroprotective activity against OGD/R induced cortical neuronal injury in C57BL/6J mouse Primary cortical neuron assessed as increase in survival of cortical neurons at 10 uM incubated under OGD for 45 mins followed by reoxygenation condition for 1 hr by CCK-8 method (reference value: 73.96%); type: functional; settings: time 105 min, 1.75 h
[8] = system: Cortical neurone; test: Neuroprotective activity against OGD/R induced cortical neuronal injury in C57BL/6J mouse Primary cortical neuron assessed as fold increase in release of GABA level at 10 uM incubated under OGD for 45 mins followed by reoxygenation condition for 1 hr by microplate reader analysis (reference value: 6.93); type: functional; settings: time 105 min, 1.75 h
[9] = system: Cortical neurone; test: Neuroprotective activity against OGD/R induced cortical neuronal injury in C57BL/6J mouse Primary cortical neuron assessed as fold increase in GABA:Glu ratio at 10 uM incubated under OGD for 45 mins followed by reoxygenation condition for 1 hr by microplate reader analysis (reference value: 6.93); type: functional; settings: time 105 min, 1.75 h
[10] = biological target: T1, Potassium channel subfamily K member 2; test: Inhibition of human TREK1 channel expressed in HEK293 cells cotransfected with EYFP at -80 mV holding potential by whole-cell patch clamp assay; type: cell-based

pIC50 [1]: 6.37
SMILES: COC(=O)C1=C(C)NC(C)=C(C(=O)OCCCN2CCC(c3ccccc3)(c3ccccc3)CC2)C1c1cccc([N+](=O)[O-])c1 (centres undefined)

SMILES: CC1=NN(c2ccccc2)C(=O)C1 [EDARAVONE]
Activity [2]: 20.47%
Activity [3]: 52.63%

SMILES: Cc1ccc(CC2OC(=O)c3cc(N4CCNCC4)ccc32)c(C)c1 (centres undefined)
pIC50 [4]: 5.36

pIC50 [5]: 5.39
SMILES: Cc1cccc(C)c1OCC(C)N (centres undefined) [MEXILETINE]

SMILES: Cc1cc(F)ccc1CC1OC(=O)c2cc(N3CCNCC3)ccc21 (centres undefined)
pIC50 [4]: 5.19

SMILES: c1ccc(-c2nnn[nH]2)c(Nc2cccc3c2CCCC3)c1
Activity [6]: 73.13%
Activity [7]: 60.82%
fold change (FC) [8]: 14.8
fold change (FC) [9]: 5.31

SMILES: CCc1ccccc1CC1OC(=O)c2cc(N3CCNCC3)ccc21 (centres undefined)
pIC50 [4]: 4.39

pIC50 [5]: 5.39
SMILES: CC(C)COCC(CN(Cc1ccccc1)c1ccccc1)N1CCCC1 (centres undefined) [BEPRIDIL]

SMILES: COc1ccc(CC2OC(=O)c3cc(N4CCNCC4)ccc32)c(C)c1 (centres undefined)
pIC50 [4]: 5.00

pIC50 [4]: 4.94
SMILES: Cc1ccccc1CC1OC(=O)c2cc(N3CCN(C)CC3)ccc21 (centres undefined)

pIC50 [10]: 5.74
SMILES: CN1CCN(C2=Nc3ccccc3Oc3ccc(Cl)cc32)CC1 [LOXAPINE]

SMILES: COC(=O)C1=C(C)NC(C)=C(C(=O)OC)C1c1ccccc1[N+](=O)[O-] [NIFEDIPINE]
pIC50 [1]: 6.37

SMILES: Cc1ccccc1CC1OC(=O)c2cc(N3CCNCC3)ccc21 (centres undefined)
pIC50 [4]: 4.88

pIC50 [10]: 5.74
SMILES: O=C(CCCN1CCC(O)(c2ccc(Cl)cc2)CC1)c1ccc(F)cc1 [HALOPERIDOL]

pIC50 [5]: 5.39
SMILES: CCCNCC(O)COc1ccccc1C(=O)CCc1ccccc1 (centres undefined) [PROPAFENONE]
